Measured values: the Kinase Knowledgebase extract (Sharma et al. 2016)

target: PIK3CA (human) (UniProt P42336); assay: Assessment of PIK3CA Kinase Activity
Sequence (P42336 whole entry, looked up): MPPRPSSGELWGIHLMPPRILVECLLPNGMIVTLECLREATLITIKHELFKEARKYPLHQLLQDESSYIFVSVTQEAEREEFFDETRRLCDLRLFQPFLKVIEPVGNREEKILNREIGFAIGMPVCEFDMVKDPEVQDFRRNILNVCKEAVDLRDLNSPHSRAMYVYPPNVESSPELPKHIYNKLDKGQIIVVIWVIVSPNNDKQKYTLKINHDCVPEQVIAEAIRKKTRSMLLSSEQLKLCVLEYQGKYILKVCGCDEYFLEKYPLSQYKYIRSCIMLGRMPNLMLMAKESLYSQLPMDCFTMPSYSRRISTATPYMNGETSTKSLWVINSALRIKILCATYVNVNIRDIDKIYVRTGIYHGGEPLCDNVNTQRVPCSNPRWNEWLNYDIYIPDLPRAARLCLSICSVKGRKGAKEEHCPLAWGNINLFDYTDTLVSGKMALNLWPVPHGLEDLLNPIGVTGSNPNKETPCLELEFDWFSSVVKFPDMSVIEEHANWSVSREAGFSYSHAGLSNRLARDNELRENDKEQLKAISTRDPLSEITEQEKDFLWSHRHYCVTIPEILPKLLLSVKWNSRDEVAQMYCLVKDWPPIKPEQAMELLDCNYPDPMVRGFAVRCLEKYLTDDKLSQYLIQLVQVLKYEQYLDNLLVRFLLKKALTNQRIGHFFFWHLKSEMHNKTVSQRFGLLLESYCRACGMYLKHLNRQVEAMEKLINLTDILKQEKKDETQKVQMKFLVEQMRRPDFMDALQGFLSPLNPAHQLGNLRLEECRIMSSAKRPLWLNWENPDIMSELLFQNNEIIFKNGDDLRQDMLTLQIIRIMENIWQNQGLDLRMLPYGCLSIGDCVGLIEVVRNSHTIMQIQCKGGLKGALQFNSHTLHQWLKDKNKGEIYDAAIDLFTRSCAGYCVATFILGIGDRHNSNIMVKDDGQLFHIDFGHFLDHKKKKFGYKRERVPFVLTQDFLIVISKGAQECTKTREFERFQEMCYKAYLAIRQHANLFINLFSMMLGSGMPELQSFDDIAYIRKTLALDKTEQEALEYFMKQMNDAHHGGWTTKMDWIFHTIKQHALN

Row | IC50 | Structure (SMILES)
1 | < 1000 nM | COc1ncccc1-c1ccc2c(c1)-c1nc(-c3ncnn3C(C)C)sc1CCO2
2 | < 1000 nM | O=C(c1nc2c(s1)CCOc1cc(-c3cn[nH]c3)ccc1-2)N1CCN(c2ccccn2)CC1
3 | < 1000 nM | CC(C)n1ncnc1-c1nc2c(s1)CCOc1ccc(-c3cccn(CC(N)=O)c3=O)cc1-2
4 | < 1000 nM | CC(C)n1ncnc1-c1nc2c(s1)CCOc1cc(C3CN(S(=O)(=O)CCO)C3)ccc1-2
5 | < 1000 nM | CC(C)n1nc(N)nc1-c1nc2c(s1)CCOc1cc(F)ccc1-2
6 | < 1000 nM | CC(C)(O)Cn1cc(-c2ccc3c(c2)OCCc2sc(NC(C)(C)CO)nc2-3)cn1
7 | < 1000 nM | CC(C)(C(=O)O)n1cc(-c2ccc3c(c2)OCCc2sc(-c4ncnn4CC(F)(F)F)nc2-3)cn1
8 | < 1000 nM | CC(C)n1cnnc1-c1nc2c(s1)CCOc1cc(CNCCO)ccc1-2
9 | < 1000 nM | CNC(=O)c1ccc2c(c1)OCCc1cc(C(=O)N(C)c3cc(C(=O)N4CC(O)C4)ccc3Cl)sc1-2
10 | < 1000 nM | CC(C)N(CCO)C(=O)c1nc2c(s1)CCOc1ccc(-c3ccc(N)nc3)cc1-2
11 | < 1000 nM | CC1(C)C(=O)NC(=O)N1c1nc2c(s1)CCOc1ccccc1-2
12 | < 1000 nM | CC(C)n1ncnc1-c1nc2c(s1)CCOc1ccc(C(O)C(F)(F)F)cc1-2 (centres undefined)
13 | < 1000 nM | O=C(c1nc2c(s1)CCOc1cc(-c3cn[nH]c3)ccc1-2)N1CCN(CCO)CC1
14 | < 1000 nM | Cc1ccncc1-c1ccc2c(c1)-c1nc(-c3ncnn3C(C)C)sc1CCO2
15 | < 1000 nM | CN1CCN(C(=O)c2nc3c(s2)CCOc2cc(-c4cn[nH]c4)ccc2-3)CC1
16 | < 1000 nM | CCN(CC)C(=O)c1nc2c(s1)CCOc1cc(-c3cn[nH]c3)ccc1-2
17 | < 1000 nM | CC(O)CNc1ccc2c(n1)-c1sc(-c3ncnn3-c3ccc(F)cc3F)cc1CCO2 (centres undefined)
18 | < 1000 nM | C[C@H](O)C(=O)N1CC(Nc2ccc3c(n2)-c2sc(-c4ncnn4-c4ccc(F)cc4F)cc2CCO3)C1
19 | < 1000 nM | CCNC(=O)NCc1ccc2c(c1)OCCc1sc(-c3nc(C)nn3C(C)C)nc1-2
20 | < 1000 nM | O=C(NCC(F)F)c1ccc2c(c1)OCCc1sc(-c3ncnn3CC(F)(F)F)nc1-2
21 | < 1000 nM | CC(=O)N1[C@H](C)CN(c2ccc3c(n2)-c2sc(-c4ncnn4-c4ccc(F)cc4F)cc2CCO3)C[C@@H]1C
22 | < 1000 nM | O=C(c1nc2c(s1)CCOc1cc(-c3cn[nH]c3)ccc1-2)N1CCC[C@@H](C(F)(F)F)C1
23 | < 1000 nM | CC(C)(O)Cn1cc(-c2ccc3c(c2)OCCc2sc(-c4nccn4C4CNC4)nc2-3)cn1
24 | < 1000 nM | CC(C)n1ncnc1-c1nc2c(s1)CCOc1cc(CNc3ccon3)ccc1-2

Row | IC50 | Structure (SMILES)
25 | < 1000 nM | O=C(c1nc2c(s1)CCOc1cc(-c3cn[nH]c3)ccc1-2)N1CCC(C(=O)N2CCCC2)CC1
26 | < 1000 nM | CC(C)n1ncnc1-c1nc2c(s1)CCOc1ccc(C#N)cc1-2
27 | < 1000 nM | CC(C)n1ncnc1-c1nc2c(s1)CCOc1ccc(C3CN(CC(N)=O)C3)cc1-2
28 | < 1000 nM | Cc1nc(-c2nc3c(s2)CCOc2cc(CN)ccc2-3)n(C(C)C)n1
29 | < 1000 nM | CC(C)N(CCO)C(=O)c1nc2c(s1)CCOc1cc(-c3cnn(C)c3)ccc1-2
30 | < 1000 nM | O=C(c1nc2c(s1)CCOc1cc(-c3cn[nH]c3)ccc1-2)N1CCCCCCC1
31 | < 1000 nM | CC(C)n1ncnc1-c1nc2c(s1)CCOc1cc(-c3cn(CCO)cn3)ccc1-2
32 | < 1000 nM | CN1CCN(C(=O)C2CCN(C(=O)c3nc4c(s3)CCOc3cc(-c5cn[nH]c5)ccc3-4)CC2)CC1
33 | < 1000 nM | Cc1ncccc1-c1ccc2c(n1)-c1sc(-c3nccn3C(C)C)cc1CCO2
34 | < 1000 nM | Fc1ccc(-n2ncnc2-c2cc3c(s2)-c2nc(NCCc4ccccc4)ccc2OCC3)c(F)c1
35 | < 1000 nM | CC(C)n1ncnc1-c1nc2c(s1)CCOc1ccc(C(=O)NCCO)cc1-2
36 | < 1000 nM | COc1ncccc1-c1ccc2c(c1)-c1nc(C(=O)N(CCO)C(C)C)sc1CCO2
37 | < 1000 nM | CC(C)n1ncnc1-c1nc2c(s1)CCOc1cc(C3CN(CC(F)(F)F)C3)ccc1-2
38 | < 1000 nM | CC(C)n1ncnc1-c1nc2c(s1)CCOc1ccc(-c3ccc(S(C)(=O)=O)cc3)cc1-2
39 | < 1000 nM | CC(C)n1nc(N)nc1-c1nc2c(s1)CCOc1cc(-c3cnn(CC4(C)COC4)c3)ccc1-2
40 | < 1000 nM | CN(CCc1ccccc1)C(=O)c1nc2c(s1)CCOc1cc(-c3cn[nH]c3)ccc1-2
41 | < 1000 nM | CC(C)n1ncnc1-c1nc2c(s1)CCOc1cc(O[C@@H](C)C(N)=O)ccc1-2
42 | < 1000 nM | CNC1CCN(C(=O)c2nc3c(s2)CCOc2cc(-c4cn[nH]c4)ccc2-3)C1 (centres undefined)
43 | < 1000 nM | COC1CCN(C(=O)c2nc3c(s2)CCOc2cc(-c4cn[nH]c4)ccc2-3)CC1
44 | < 1000 nM | CC(C)n1ncnc1-c1nc2c(s1)CCOc1ccc(C3CN(C(=O)OC(C)(C)C)C3)cc1-2
45 | < 1000 nM | Cc1cccc(N2CCN(C(=O)c3nc4c(s3)CCOc3cc(-c5cn[nH]c5)ccc3-4)CC2)n1
46 | < 1000 nM | CC(C)n1ncc(CO)c1-c1cc2c(s1)-c1nc(Cl)ccc1OCC2
47 | < 1000 nM | Fc1ccc(-n2ncnc2-c2cc3c(s2)-c2nc(NC4CNC4)ccc2OCC3)c(F)c1
48 | < 1000 nM | Fc1ccc(-n2ncnc2-c2cc3c(s2)-c2nc(NCC4CCCC4)ccc2OCC3)c(F)c1

Row | IC50 | Structure (SMILES)
49 | < 1000 nM | Fc1ccc(-n2ncnc2-c2cc3c(s2)-c2ccc(C4CNC4)cc2OCC3)c(F)c1
50 | < 1000 nM | CC(O)c1ccc2c(c1)OCCc1sc(-c3ncnn3CC(F)(F)F)nc1-2 (centres undefined)
51 | < 1000 nM | CN1CCC(CNc2ccc3c(n2)-c2sc(-c4ncnn4-c4ccc(F)cc4F)cc2CCO3)C1 (centres undefined)
52 | < 1000 nM | Cc1nc(-c2nc3c(s2)CCOc2cc(C4CN(CC(=O)NC(C)C)C4)ccc2-3)n(C(C)C)n1
53 | < 1000 nM | O=C(c1nc2c(s1)CCOc1cc(-c3cn[nH]c3)ccc1-2)N1CC(F)(F)C1
54 | < 1000 nM | CC(C)n1ncnc1-c1nc2c(s1)CCOc1cc(C3CCN(CCS(C)(=O)=O)CC3)ccc1-2
55 | < 1000 nM | CC(C)n1ncnc1-c1cc2c(s1)-c1ccc(C3CNC3)cc1OCC2
56 | < 1000 nM | CC(C)n1ncnc1-c1nc2c(s1)CCOc1cc(C3CN(S(=O)(=O)CCN(C)C)C3)ccc1-2
57 | < 1000 nM | O=C(c1nc2c(s1)CCOc1cc(-c3cn[nH]c3)ccc1-2)N(CCO)C1CCCC1
58 | < 1000 nM | C[C@@H]1CN(c2ccc3c(n2)-c2sc(-c4ncnn4-c4ccc(F)cc4F)cc2CCO3)C[C@H](C)N1C(=O)C(F)F
59 | < 1000 nM | CC(C)c1nn(C)c(=O)n1-c1nc2c(s1)CCOc1cc(-c3cnn(CCO)c3)ccc1-2
60 | < 1000 nM | CC(C)n1ncnc1-c1nc2c(s1)CCOc1ccc(-c3ccc[nH]c3=O)cc1-2
61 | < 1000 nM | CC1CN(C(=O)c2nc3c(s2)CCOc2cc(-c4cn[nH]c4)ccc2-3)CCN1 (centres undefined)
62 | < 1000 nM | CNC(=O)c1ccc2c(c1)OCCc1cc(C(=O)N(C)c3cc(C(=O)N4CC(F)(F)C4)ccc3Cl)sc1-2
63 | < 1000 nM | Cc1nc(-c2nc3c(s2)CCOc2cc(-c4cnn(C5CN(CC(C)(C)O)C5)c4)ccc2-3)n(C(C)C)n1
64 | < 1000 nM | NCCn1cc(-c2ccc3c(c2)OCCc2sc(-c4ncnn4CC(F)(F)F)nc2-3)cn1
65 | < 1000 nM | O=C(c1nc2c(s1)CCOc1cc(-c3cn[nH]c3)ccc1-2)N1CC[C@@H](C(F)(F)F)C1
66 | < 1000 nM | C[C@@H]1CCCN(C(=O)c2nc3c(s2)CCOc2cc(-c4cn[nH]c4)ccc2-3)C1
67 | < 1000 nM | CC(C)(O)Cn1cc(-c2ccc3c(c2)OCCc2sc(N4C(=O)OCC4(C)C)nc2-3)cn1
68 | < 1000 nM | O=S1(=O)CCN(c2ccc3c(n2)-c2sc(-c4ncnn4-c4ccc(F)cc4F)cc2CCO3)CC1
69 | < 1000 nM | O=C(c1nc2c(s1)CCOc1cc(-c3cn[nH]c3)ccc1-2)N1CCCC1
70 | < 1000 nM | CC(C)n1cnnc1-c1nc2c(s1)CCOc1cc(CNCC(N)=O)ccc1-2
71 | < 1000 nM | CNC(=O)c1ccc2c(c1)OCCc1cc(C(=O)N(C)c3cc(C(=O)NC[C@H](C)O)ccc3Cl)sc1-2
72 | < 1000 nM | Cc1nc(N)ncc1-c1ccc2c(c1)-c1nc(C(=O)N(CCO)C(C)C)sc1CCO2

Row | IC50 | Structure (SMILES)
73 | < 1000 nM | CC(=O)N1CCC(Nc2ccc3c(n2)-c2sc(-c4ncnn4-c4ccc(F)cc4F)cc2CCO3)CC1
74 | < 1000 nM | O=C(c1nc2c(s1)CCOc1cc(-c3cn[nH]c3)ccc1-2)N1CCN(c2ncccn2)CC1
75 | < 1000 nM | Cc1nc(-c2nc3c(s2)CCOc2cc(C(C)NC(N)=O)ccc2-3)n(C(C)C)n1 (centres undefined)
76 | < 1000 nM | COCCN1CCN(C(=O)c2nc3c(s2)CCOc2cc(-c4cn[nH]c4)ccc2-3)CC1
77 | < 1000 nM | C[C@@H]1CN(c2ccc3c(n2)-c2sc(-c4ncnn4-c4ccc(F)cc4F)cc2CCO3)C[C@H](C)N1CC(F)(F)F
78 | < 1000 nM | Cc1cc(-c2ccc3c(n2)-c2sc(-c4ncnn4-c4ccc(F)cc4F)cc2CCO3)cnc1F
79 | < 1000 nM | CC(C)(C)n1nc(N)nc1-c1nc2c(s1)CCOc1cc(-c3cn[nH]c3)ccc1-2
80 | < 1000 nM | C[C@@H]1CN(c2ccc3c(n2)-c2sc(-c4ncnn4-c4ccc(F)cc4F)cc2CCO3)C[C@H](C)N1CCF
81 | < 1000 nM | CN1CCC(n2ncnc2-c2nc3c(s2)CCOc2cc(-c4cnn(CC(C)(C)O)c4)ccc2-3)CC1
82 | < 1000 nM | C[C@@H]1CN(c2ccc3c(n2)-c2sc(-c4ncnn4-c4ccc(F)cc4F)cc2CCO3)C[C@H](C)N1C
83 | < 1000 nM | CC(C)N(CCO)C(=O)c1nc2c(s1)CCOc1cc(-c3cnn(CC(C)(C)O)c3)ccc1-2
84 | < 1000 nM | Oc1ccc(-c2ccc3c(n2)-c2sc(-c4ncnn4-c4ccc(F)cc4F)cc2CCO3)cn1
85 | < 1000 nM | CC(O)Cn1ncnc1-c1nc2c(s1)CCOc1cc(-c3cnn(CC(C)(C)O)c3)ccc1-2 (centres undefined)
86 | < 1000 nM | Cc1nc(-c2nc3c(s2)CCOc2cc(-c4cncn4CCO)ccc2-3)n(C(C)C)n1
87 | < 1000 nM | FC(F)(F)Cn1ncnc1-c1nc2c(s1)CCOc1ccc(-c3cnn(CCN4CCOCC4)c3)cc1-2
88 | < 1000 nM | CC(O)CCc1ccc2c(n1)-c1sc(-c3ncnn3-c3ccc(F)cc3F)cc1CCO2 (centres undefined)
89 | < 1000 nM | OCCn1cc(-c2ccc3c(c2)OCCc2sc(-c4ncnn4CC(F)(F)F)nc2-3)cn1
90 | < 1000 nM | CC(=O)N1CC2CC1CN2c1ccc2c(n1)-c1sc(-c3ncnn3-c3ccc(F)cc3F)cc1CCO2 (centres undefined)
91 | < 1000 nM | CNC(=O)Cn1ccnc1-c1nc2c(s1)CCOc1cc(-c3cnn(CC(C)(C)O)c3)ccc1-2
92 | < 1000 nM | CN(C)C(=O)Cn1cc(-c2ccc3c(c2)OCCc2sc(-c4ncnn4CC(F)(F)F)nc2-3)cn1
93 | < 1000 nM | Cc1ccncc1-c1ccc2c(c1)-c1nc(C(=O)N(CCO)C(C)C)sc1CCO2
94 | < 1000 nM | CC(C)n1ncnc1-c1nc2c(s1)CCOc1ccc(C3CN(S(=O)(=O)CCO)C3)cc1-2
